A short description of data set [1]: Hydrophilic-lipophilic balance (HLB) value. The following applies: calculated as twenty times molecular weight of hydrophilic portion divided by total molecular weight. It counts as physicochemical.
The test system of data set [2] is rabbits. In words: Cytotoxicity by ocular irritation study (ISO 10993-10). It counts as in vivo. The settings on record: 0.035% in PBS, ocular irritation study in rabbits (ISO 10993-10). The source says: An advantage of the surfactants used herein is that they are non-cytotoxic at concentrations effective at reducing surface concentration of silicon, and thus may be left in the final packaged contact lens. In contrast, other methods for reducing surface concentration of silicone of silicone hydrogel contact lenses employ toxic compounds that must be extracted from the contact lens prior to final packaging (see e.g. US Pat. Appin. Publ. No. 2014/0275434). Thus, the prior art method requires additional processing steps in order to provide an ophthalmically-acceptable contact lens, which add to manufacturing costs. Further, there is a desire to minimize the use of hazardous chemicals in manufacturing sites, which is another advantage of the present invention compared to the prior art. In specific examples, the concentration of the surfactant in the packaging solution prior to contact with the contact lens is from about 0.01 wt. % or 0.02 wt. %, up to about 0.05 wt. %, 0.075 wt. %, or 0.1 wt. %. Throughout this disclosure, when a series of lower limit ranges and a series of upper limit ranges are provided, all combinations of the provided ranges are contemplated as if each combination were specifically listed. […]
Because of the low CoF values obtained for both lenses, tyloxapol and RLM-100 were evaluated further for use as a possible packaging solution additive.

As to tyloxapol, the HLB value entry in data set [1] is “about 13”. Moreover, in data set [2], the cytotoxicity result is given as “non-cytotoxic”.
